Laboratory results from EP2027772A1, “Skin-friendly insect repellent” (Beiersdorf AG, priority 2007, dated 2009).

Experiment: Octanol/water partition coefficient (log P), shake-flask with UV spectroscopy; alternatively calculated by Hansch and Leo
Settings: not given

In the case of CC(C)(CO)CO [Neopentanediol, Neopentyleme Glyol], the “Log P-Wert” value is reported as -0,3.

Same assay, conditions: n-Octanol/Wasser

In the case of OCCCCO [Butane-1,4diol, Tetramethylene Glucol], the “Log P-Wert” value is reported as -1.

For CC(O)CO (stereo not drawn) [1,2 Propandiol], the “Log P-Wert” value was -1,3.

Experiment: physchem
Settings: not given

In order of falling logP:
1. CCCCC(CC)COCC(O)CO (stereo not drawn) [3-[(2-Ethylhexyl)oxy]-1,2 propandiol]  2.1
2. OCCCCCCO [1,6 Hexandiol]  -0.1
3. OCCCCCO [1,5 Pentandiol]  -0.6
4. CC(O)CCO (stereo not drawn) [1,3 Butandiol]  -0.7
5. CCC(CO)(CO)CO [2-Ethyl-2-Hydroxymethyl 1,3 Propandiol]  -0.8
6. OCC(CO)(CO)CO [2,2 Bishydroxymethyl 1,3 Propanediol]  -2.4

Same assay, conditions: n-octanol/water

In order of falling logP:
1. CCCCCCCC(O)CO (stereo not drawn) [1,2 Nonanediol]  2.5
2. CCCCCCCCC(O)CO (stereo not drawn) [1,2-Decandiol]  2.4
3. CCCCCC(O)CO (stereo not drawn) [1,2 Heptanediol]  1.5
4. CCCCCCC(O)CO (stereo not drawn) [1,2 Octandiol]  1.3
5. CCCCC(O)CO (stereo not drawn) [1,2 Hexandiol]  1
6. CCCCCC(O)C(O)CO (stereo not drawn) [1,2,3 Octanetriol]  0.15
7. CC(O)CC(C)(C)O (stereo not drawn) [2-Methyl-2,4 Pentandiol]  0
8. CC(C)(O)CCO [3-Methyl 1,3 Butanediol]  -0.3
9. CCC(CO)(CO)COCC(CC)(CO)CO [3,3,7,7 Tetrahydroxymethyl 5 oxanonan]  -0.3
10. CCCC(O)CO (stereo not drawn) [1,2 Pentandiol]  -0.3
11. COCC(O)COC [1,3-Dimethoxy-2-propanol]  -0.5
12. CC(CO)CO [2-Methyl-1,3-Propanediol]  -0.7
